From patent US20260191998A1, “INDOLE PHTHALOCYANINE COMPOUND, PREPARATION METHOD THEREFOR, AND USE THEREOF IN TUMOR DIAGNOSIS IMAGING” (JIANGSU YAHONG MEDITECH CO., LTD., priority 2022, published 2026)

How the values were obtained:
RT112 tumor = assay: Tumor/background ratio in subcutaneous RT112 tumor model mice; format: in vivo; conditions: 2 mpk intraperitoneal, 48 hours after injection
Excerpt: The subcutaneous tumor model mice inoculated with RT112 tumor were selected. Each compound was administrated at a dose of 2 mpk, and intraperitoneally injected.

[1] = MRC5 proliferation test (CellTiter-Glo); format: cell-based; conditions: human, MRC5 cells (normal cells), 3 days incubation, read-out: MRC5 (IC50, nM), inhibitory effect on proliferation of normal cells
Excerpt: • MRC5 (ATCC; Cat. No.: CCL-171)
• Culture medium EMEM (ATCC, 30-2003) • Fetal bovine serum (Gibco, 10091148) • Penicillin-streptomycin double antibody (Gibco, S110JV) • DPBS (Gibco, 14190-144) • CellTiter-Glo® assay kit (Promega, G7573) • Trypsin (0.25%) (Gibco, 25200-056) • DMSO (Sigma, D2650)
• Biosafety cabinet (AIRTECH, BSC-1300A II) • Automated cell counter (Life Technologies, countess II) • Multifunctional microplate reader (Biotek, H1FM) • Shaker (Hangzhou Allsheng Instruments Co., Ltd., OS-100) • XLFIT 5.3 (Shanghai Inforstack Co., Ltd.)
For this test method, the following experiment was performed in a biosafety cabinet with the specific steps as follows. • (1) Cells were seeded in a […] (in which the culture medium was EMEM). One day later, the previous culture medium EMEM was poured off, and 5 mL of DPBS was added to wash the cells. Then DPBS was pipetted and discarded. An appropriate amount of trypsin was then added. The plate was placed in a 5% CO2 cell incubator at 37° C. to digestion for about 2 to 5 minutes, and then taken out. New culture medium EMEM was added. The cells were pipetted up and down to resuspend evenly. The cells were then counted by an automated cell counter. • (2) Cells were seeded in columns 1 to 11 of a 96-well plate (Corning, Cat. No. 3610) at a density of 3000 cells per well in 100 μL of culture medium EMEM, and 100 μL of culture medium EMEM free of cells was added into column 12 of the wells. Then, the plate was placed in the 5% CO2 incubator at 37° C. for 24 hours. • (3) Next, the compound of the present invention was 2-fold serially diluted into 8 dose points starting at 10 μM. 10 μL of the serially diluted compound was pipetted and added to 100 μL of cells in columns 1 to 10, and 10 μL of the culture medium EMEM containing 2% DMSO was added to both columns 11 and 12. The plate was placed in the 5% CO2 incubator at 37° C. and incubated for 3 days (Note: column 11 was used as a MAX well with cells but without the compound; column 12 was used as a MIN well without both cell and compound). • (4) The cell viability detection reagent in the above CellTiter-Glo® assay kit was then added to the 96-well plate at 50 μL per well according to the instruction, and shaken on a shaker in dark for 5 to 10 minutes. The cell viability was then measured using a multifunctional microplate reader. Finally, the inhibition of the compound of the present invention on cell proliferation was plotted by XLFIT software, and the half inhibitory concentration, IC50 value of the compound of the present invention was calculated therefrom.

[2] = UV-VIS absorption spectra (optical property test); format: physicochemical; conditions: 10 μM, DMSO solution; for Absorbance × 10^4: at maximum absorption peak
Protocol: The UV-VIS absorption spectra of the compounds (10 μM, DMSO solution) were detected using Shimadzu UV2600 spectrophotometer, and the maximum absorption peak and absorbance of each compound were obtained.

hERG channels = hERG channels (Homo sapiens, UniProt Q12809); assay: hERG whole-cell patch clamp in HEK 293 cells stably expressing hERG; format: cell-based; conditions: HEK 293 stably expressing hERG, tail current
Chain of hERG channels (Q12809 whole entry): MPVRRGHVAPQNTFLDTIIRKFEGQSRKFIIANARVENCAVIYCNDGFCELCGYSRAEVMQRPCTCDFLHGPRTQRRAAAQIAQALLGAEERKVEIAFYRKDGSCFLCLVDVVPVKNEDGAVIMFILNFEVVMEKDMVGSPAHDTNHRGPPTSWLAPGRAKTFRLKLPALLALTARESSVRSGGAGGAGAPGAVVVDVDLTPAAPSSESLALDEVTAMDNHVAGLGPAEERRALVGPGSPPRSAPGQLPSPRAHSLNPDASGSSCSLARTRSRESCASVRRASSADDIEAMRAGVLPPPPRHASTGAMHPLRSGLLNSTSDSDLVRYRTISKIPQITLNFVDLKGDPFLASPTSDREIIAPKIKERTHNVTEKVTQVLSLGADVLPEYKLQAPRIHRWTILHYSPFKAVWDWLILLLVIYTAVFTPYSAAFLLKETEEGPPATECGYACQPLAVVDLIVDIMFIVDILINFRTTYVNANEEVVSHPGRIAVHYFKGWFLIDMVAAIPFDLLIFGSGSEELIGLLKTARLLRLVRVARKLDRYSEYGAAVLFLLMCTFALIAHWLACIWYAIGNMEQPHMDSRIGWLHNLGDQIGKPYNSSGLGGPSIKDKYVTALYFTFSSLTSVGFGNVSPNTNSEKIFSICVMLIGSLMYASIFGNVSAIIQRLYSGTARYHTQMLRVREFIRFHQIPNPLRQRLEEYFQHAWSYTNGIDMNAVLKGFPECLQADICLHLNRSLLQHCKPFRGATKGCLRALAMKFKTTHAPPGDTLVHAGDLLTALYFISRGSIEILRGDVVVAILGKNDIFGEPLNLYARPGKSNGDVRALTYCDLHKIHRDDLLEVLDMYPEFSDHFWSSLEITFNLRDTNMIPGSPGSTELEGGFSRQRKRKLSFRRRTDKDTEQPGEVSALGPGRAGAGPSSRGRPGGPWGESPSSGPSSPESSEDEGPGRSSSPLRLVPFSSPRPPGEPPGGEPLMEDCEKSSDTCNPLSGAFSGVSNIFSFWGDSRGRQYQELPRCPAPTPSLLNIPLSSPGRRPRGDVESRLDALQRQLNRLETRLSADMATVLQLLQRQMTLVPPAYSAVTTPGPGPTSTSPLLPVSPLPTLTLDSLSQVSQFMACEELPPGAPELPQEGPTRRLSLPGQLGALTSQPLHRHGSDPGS
Protocol: The HEK 293 cell line (K1236) stably expressing hERG was purchased from Invitrogen. Cells were cultured in 85% DMEM, 10% dialyzed FBS, 0.1 mM NEAA, 25 mM HEPES, 100 U/mL penicillin-streptomycin, 5 μg/mL blasticidin and 400 μg/mL geneticin. Cells were split using TrypLE™ about three times a week, and maintained at a confluence of about 40% to about 80%. Before measurement, cells were cultured at a density of 5×10^5 in a 6 cm culture dish and induced with 1 μg/mL doxycycline for 48 hours.
Extracellular solution (mM): 132 NaCl, 4 KCl, […], 0.5 MgCl2, 11.1 glucose, 10 HEPES (pH 7.35 adjusted with NaOH);
Intercellular solution (mM): 140 KCl, 2 MgCl2, 10 EGTA, 10 HEPES, 5 MgATP (pH 7.35 adjusted with KOH).
The test compounds were formulated in DMSO to prepare a stock solution with a final concentration of 10 mM.
Then, the stock solution of each compound was diluted with DMSO in a 1:3 serial dilution to prepare five intermediate solutions with concentrations of 3, 1, 0.33, 0.12, 0.04 mM or 3.33, 1.11, 0.37, 0.12 mM, respectively.
Before testing, the final working solutions were prepared by diluting the intermediate solutions 1000 times with the extracellular solution. The concentration of DMSO in the working solutions was within a range around 0.1%.
The working solutions at five different concentrations of 3, 1, 0.33, 0.12 and 0.04 μM were used to determine the potential inhibition effect of the compounds on hERG channels and to fit concentration-response curves and calculate IC50.
The coverslip was removed from the cell culture dish and placed on a microscope stage.
A 10× objective was used to locate cells to be observed. An electrode tip was located under the microscope using the 10× objective by focusing above the plane of the cells. Once the tip was in focus, the electrode was advanced downward towards the cells under rough control of the manipulator, while the objective was moved so as to keep the tip in focus.
When the electrode was directly over a cell, the objective was switched to a 40× objective and fine control of the manipulator was used to enable to gradually approach the cell surface.
With gentle suction through a side port of an electrode holder, a giga-ohm seal was formed.
Cfast was used to eliminate the capacitive current consistent with the voltage step. Brief and strong suction was applied repeatedly until the membrane patch ruptured and the whole-cell configuration was obtained.
At this point, membrane potential was set to −60 mV in order to ensure that hERG channels were not open. Then, Cslow on the amplifier was used to remove the spikes of capacitive current.
Holding potential was set to −90 mV for 500 ms. Current was recorded at 20 kHz and filtering was carried out at 10 kHz. Leak current was tested at −80 mV for 500 ms.
The hERG current was elicited by depolarizing at +30 mV for 4.8 seconds, and then the voltage was restored to −50 mV for 5.2 seconds to remove the inactivation and observe the deactivating tail current. The maximum of tail current size was used to determine hERG current amplitude.
Current was recorded for 120 seconds to evaluate the current stability. Only stable cells with recording parameters above thresholds were used for drug administrations.
Firstly, vehicle control was applied to the cells to establish the baseline. […] The hERG current in the presence of the test compound was recorded for about 5 minutes to reach a steady state, and then 5 sweeps were captured. For dose-response testing, multiple compounds were applied to the cells cumulatively from low to high concentrations (multiple compounds were detected simultaneously). The positive control, Dofetilide at a concentration of 150 nM, was also applied to each cell post hERG current measurement at the highest concentration of the test compound, which was used as an internal low control for normalization of percentage inhibition. […]

[3] = Kinetic solubility in phosphate buffered saline (HPLC); format: physicochemical; conditions: phosphate buffered saline (PBS), aqueous buffer, kinetic from dmso stock, 25° C., shaken 2 hours, from 10 mM DMSO stock
Protocol: The compounds were weighed in an appropriate amount and dissolved in DMSO to prepare a 10 mM stock solution. 30 μL of the stock solution was taken and 970 μL of phosphate buffered saline solution (PBS) was added thereto. The solution was shaken at 25° C. on a thermostatic mixer for 2 hours, and centrifuged at 12000 rpm for 10 minutes. The supernatant was taken, and the kinetic solubility of each compound in phosphate buffered saline solution (PBS) was determined by Waters Acquity Arc HPLC.

[4] = test system: human bladder cancer cell line UM-UC-3; assay: In vitro imaging effect test with addition of BSP, UM-UC-3; format: cell-based; conditions: 250 μM BSP, compound 1-20 μM with surfactin 1:5, 30 minutes
Protocol: UM-UC-3 (1.5×10^4/well) were cultured in EMEM medium (containing 10% fetal bovine serum (FBS) and 1% antibiotics (100 U/mL penicillin and 100 U/mL streptomycin)) and seeded in a 96-well plate in advance. The plate was cultured in a 5% CO2 cell culture incubator at 37° C. overnight. The following day, the culture medium was sucked away, and 250 μM of BSP was added to the test wells and preconditioned for 10 minutes, followed by addition of the culture medium containing an appropriate concentration (1-20 μM) of the compound and surfactin (the molar ratio of the test compound to the surfactin being 1:5) with or without 250 μM of BSP, and then incubated for 30 minutes. The cells were rinsed three times with PBS solution, and the near-infrared fluorescence intensity in the bladder cancer cells was observed using an integrated fluorescence microscopic imaging system from Keyence. The conditions for near-infrared photography were Ex=775/50 nm and Em=845/55 nm.

SMILES	Tumor/background ratio (RT112 tumor)	IC50 at 3 days [1]	Absorption peak [2]	Absorbance × 10^4 [2]	IC50 (hERG channels)	solubility kinetic at 2 h [3]	Uptake by UM-UC-3 with or without BSP [4]
CC[N+]1=C(/C=C/C2=C(Cl)C(=C/C=C3/N(CCCCCC(=O)Oc4ccccc4)c4ccccc4C3(C)C)/CCC2)C(C)(C)c2ccccc21.[Cl-] [Comparative Example 1, 2-((E)-2-((E)-2-chloro-3-(2-((E)-3,3-dimethyl-1-(6-oxo-6-phenoxyhexyl)indolin-2-ylidene)ethenyl)cyclohex-1-en-1-yl)ethenyl)-1-ethyl-3,3-dimethyl-3H-indol-1-ium Chloride, reference compound]	2.4	2700 nM	794.5 nm	2.16	< 120 nM	5 µg/mL	
CC[N+]1=C(/C=C/C2=C(Cl)C(=C/C=C3/N(Cc4ccc(C(=O)Oc5ccccc5)cc4)c4ccccc4C3(C)C)/CCC2)C(C)(C)c2ccccc21 [Example 6, 2-((E)-2-((E)-2-chloro-3-(2-((E)-3,3-dimethyl-1-(4-(phenoxycarbonyl)bromo)indolin-2-ylidene)ethenyl)cyclohex-1-en-1-yl)ethenyl)-1-ethyl-3,3-dimethyl-3H-indol-1-ium Chloride]			795 nm	1.8			may be weakened or enhanced by BSP
COCCOCCN1/C(=C/C=C2\CCCC(/C=C/C3=[N+](CCOCCOCCC(=O)O)c4ccccc4C3(C)C)=C2Cl)C(C)(C)c2ccccc21 [Example 68, 1-(2-(2-(2-carboxyethoxy)ethoxy)ethyl)-2-((E)-2-((E)-2-chloro-3-(2-((E)-1-(2-(2-methoxyethoxy)ethyl)-3,3-dimethylindolin-2-ylidene)ethenyl)cyclohex-1-en-1-yl)ethenyl)-3,3-dimethyl-3H-indol-1-ium 2,2,2-trifluoroacetate]	2.5	> 10000 nM	796 nm	2.74	890 nM	> 250 µg/mL	
COCCOCCOCCN1/C(=C/C=C2\CCCC(/C=C/C3=[N+](CCOCCOCCC(=O)O)c4ccccc4C3(C)C)=C2Cl)C(C)(C)c2ccccc21 [Example 70]	2.7	> 10000 nM	796.5 nm	2.09	568 nM	> 250 µg/mL	
COCCOCCOCCOCCN1/C(=C/C=C2\CCCC(/C=C/C3=[N+](CCOCCOCCC(=O)O)c4ccccc4C3(C)C)=C2Cl)C(C)(C)c2ccccc21 [Example 73, 1-(2-(2-(2-carboxyethoxy)ethoxy)ethyl)-2-((E)-2-((E)-2-chloro-3-(2-((E)-3,3-dimethyl-1-(2,5,8,11-tetraoxatridecan-13-yl)indolin-2-ylidene)ethenyl)cyclohex-1-en-1-yl)ethenyl)-3,3-dimethyl-3H-indol-1-ium Chloride]	2.7	> 10000 nM	796.5 nm	2.15	1660 nM	> 250 µg/mL	
CN(C)C1CC(/C=C/C2=[N+](C)c3ccccc3C2(C)C)=C(Cl)C(=C/C=C2/N(CCCCCC(=O)O)c3ccccc3C2(C)C)/C1 (stereo not drawn) [Example 87]	3.3	> 10000 nM	785 nm	1.91	1420 nM	38 µg/mL	
C[N+]1=C(/C=C/C2=C(Cl)C(=C/C=C3/N(CCOCCC(=O)Oc4ccccc4)c4ccccc4C3(C)C)/CCC2)C(C)(C)c2ccccc21.[Cl-] [Example 95]	2.8	> 10000 nM	793.5 nm	2.41	980 nM	99 µg/mL	
